Drawing on the kinase profiling compilation of Christmann-Franck et al. (2016), this text covers residual activity for three molecules.

PDGFRA (human), sequence (P16234 whole entry, looked up): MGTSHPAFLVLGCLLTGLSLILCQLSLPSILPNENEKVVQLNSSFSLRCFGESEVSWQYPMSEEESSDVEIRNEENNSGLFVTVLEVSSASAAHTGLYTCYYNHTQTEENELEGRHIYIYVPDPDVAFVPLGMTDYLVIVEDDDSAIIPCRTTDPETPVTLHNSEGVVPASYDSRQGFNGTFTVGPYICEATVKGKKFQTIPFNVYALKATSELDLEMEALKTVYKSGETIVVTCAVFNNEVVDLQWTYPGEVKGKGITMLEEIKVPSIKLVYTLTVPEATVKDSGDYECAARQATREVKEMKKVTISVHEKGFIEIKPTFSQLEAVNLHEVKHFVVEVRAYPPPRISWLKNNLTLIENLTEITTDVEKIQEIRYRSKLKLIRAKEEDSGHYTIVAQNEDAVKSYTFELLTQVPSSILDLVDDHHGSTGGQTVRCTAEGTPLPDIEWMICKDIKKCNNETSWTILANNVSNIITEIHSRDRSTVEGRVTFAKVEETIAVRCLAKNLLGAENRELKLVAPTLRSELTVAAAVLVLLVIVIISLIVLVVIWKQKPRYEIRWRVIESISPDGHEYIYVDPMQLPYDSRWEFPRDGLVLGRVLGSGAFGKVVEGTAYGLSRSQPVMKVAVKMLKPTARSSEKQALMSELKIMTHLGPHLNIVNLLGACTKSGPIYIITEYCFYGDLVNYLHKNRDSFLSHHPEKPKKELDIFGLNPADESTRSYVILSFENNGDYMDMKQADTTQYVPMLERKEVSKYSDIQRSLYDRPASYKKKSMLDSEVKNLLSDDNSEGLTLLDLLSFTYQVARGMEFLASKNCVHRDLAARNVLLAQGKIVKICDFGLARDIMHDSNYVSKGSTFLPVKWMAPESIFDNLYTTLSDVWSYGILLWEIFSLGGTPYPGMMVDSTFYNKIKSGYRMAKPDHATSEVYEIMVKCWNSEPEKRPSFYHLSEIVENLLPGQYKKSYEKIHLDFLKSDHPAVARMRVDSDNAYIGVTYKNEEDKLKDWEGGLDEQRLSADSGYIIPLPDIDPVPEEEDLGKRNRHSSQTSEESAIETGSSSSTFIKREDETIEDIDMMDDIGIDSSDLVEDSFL
STK3 (human), sequence (Q13188 whole entry, looked up): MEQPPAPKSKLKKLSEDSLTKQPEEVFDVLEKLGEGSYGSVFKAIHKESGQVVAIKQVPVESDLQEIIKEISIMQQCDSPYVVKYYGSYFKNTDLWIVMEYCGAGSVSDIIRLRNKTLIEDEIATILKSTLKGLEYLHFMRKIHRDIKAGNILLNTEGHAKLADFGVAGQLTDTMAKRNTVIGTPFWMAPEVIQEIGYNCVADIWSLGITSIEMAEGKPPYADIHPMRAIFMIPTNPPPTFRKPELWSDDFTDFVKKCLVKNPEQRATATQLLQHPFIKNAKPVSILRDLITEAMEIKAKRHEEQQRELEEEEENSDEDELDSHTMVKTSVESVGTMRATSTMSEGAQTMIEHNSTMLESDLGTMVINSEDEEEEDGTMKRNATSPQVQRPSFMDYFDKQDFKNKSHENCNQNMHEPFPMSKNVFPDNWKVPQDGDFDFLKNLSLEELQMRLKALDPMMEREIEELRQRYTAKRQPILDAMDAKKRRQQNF
CDK5 CDK5R1 p25 (human), sequence (Q00535 whole entry, looked up): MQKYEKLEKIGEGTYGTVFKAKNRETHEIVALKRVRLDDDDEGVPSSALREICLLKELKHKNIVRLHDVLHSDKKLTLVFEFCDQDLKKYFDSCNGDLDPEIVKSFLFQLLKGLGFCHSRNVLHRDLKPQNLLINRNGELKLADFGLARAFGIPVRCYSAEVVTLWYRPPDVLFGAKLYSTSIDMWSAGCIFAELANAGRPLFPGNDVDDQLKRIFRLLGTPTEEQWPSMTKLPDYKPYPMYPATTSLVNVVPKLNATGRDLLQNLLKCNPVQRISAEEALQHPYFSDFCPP
CDK5 CDK5R1 p25 (human), sequence (Q15078 whole entry, looked up): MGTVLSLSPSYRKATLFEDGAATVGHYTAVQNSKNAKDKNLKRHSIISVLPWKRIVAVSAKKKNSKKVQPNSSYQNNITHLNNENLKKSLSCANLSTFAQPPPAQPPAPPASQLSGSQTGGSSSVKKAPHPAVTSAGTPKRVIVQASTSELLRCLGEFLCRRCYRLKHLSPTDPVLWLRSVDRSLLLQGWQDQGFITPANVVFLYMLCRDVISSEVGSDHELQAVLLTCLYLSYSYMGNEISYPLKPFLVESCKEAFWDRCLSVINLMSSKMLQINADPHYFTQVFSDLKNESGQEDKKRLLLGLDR
GSK3B (human), sequence (P49841 whole entry, looked up): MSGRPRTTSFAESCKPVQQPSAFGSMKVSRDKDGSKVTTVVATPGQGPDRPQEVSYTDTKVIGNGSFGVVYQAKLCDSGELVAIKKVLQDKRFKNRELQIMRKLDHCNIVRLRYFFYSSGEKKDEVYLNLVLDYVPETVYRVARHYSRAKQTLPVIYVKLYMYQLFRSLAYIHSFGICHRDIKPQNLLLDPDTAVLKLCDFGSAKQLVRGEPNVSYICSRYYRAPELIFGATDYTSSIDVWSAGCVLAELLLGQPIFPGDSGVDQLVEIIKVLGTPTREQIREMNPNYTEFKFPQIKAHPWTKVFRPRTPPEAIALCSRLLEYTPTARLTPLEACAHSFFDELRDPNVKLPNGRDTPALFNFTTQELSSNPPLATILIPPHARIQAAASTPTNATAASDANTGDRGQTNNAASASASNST
STK25 (human), sequence (O00506 whole entry, looked up): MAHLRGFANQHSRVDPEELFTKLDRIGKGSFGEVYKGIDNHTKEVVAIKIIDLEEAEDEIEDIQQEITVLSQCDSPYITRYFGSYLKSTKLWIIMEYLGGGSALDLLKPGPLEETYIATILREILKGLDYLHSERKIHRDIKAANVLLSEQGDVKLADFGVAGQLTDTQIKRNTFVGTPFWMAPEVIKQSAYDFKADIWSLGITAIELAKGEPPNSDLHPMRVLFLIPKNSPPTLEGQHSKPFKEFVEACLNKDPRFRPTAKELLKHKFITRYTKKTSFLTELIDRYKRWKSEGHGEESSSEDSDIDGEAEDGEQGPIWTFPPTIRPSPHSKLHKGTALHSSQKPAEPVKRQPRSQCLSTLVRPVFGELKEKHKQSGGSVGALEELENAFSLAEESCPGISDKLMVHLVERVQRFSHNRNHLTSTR

In the first test the target is MARK1 (human) (UniProt Q9P0L2). As to the kind of experiment: radiometric filter-binding kinase assay, Kinase HotSpot. Particulars: compound 0.5 µM; ATP 10 µM.
MARK1 (human), sequence (Q9P0L2 whole entry, looked up): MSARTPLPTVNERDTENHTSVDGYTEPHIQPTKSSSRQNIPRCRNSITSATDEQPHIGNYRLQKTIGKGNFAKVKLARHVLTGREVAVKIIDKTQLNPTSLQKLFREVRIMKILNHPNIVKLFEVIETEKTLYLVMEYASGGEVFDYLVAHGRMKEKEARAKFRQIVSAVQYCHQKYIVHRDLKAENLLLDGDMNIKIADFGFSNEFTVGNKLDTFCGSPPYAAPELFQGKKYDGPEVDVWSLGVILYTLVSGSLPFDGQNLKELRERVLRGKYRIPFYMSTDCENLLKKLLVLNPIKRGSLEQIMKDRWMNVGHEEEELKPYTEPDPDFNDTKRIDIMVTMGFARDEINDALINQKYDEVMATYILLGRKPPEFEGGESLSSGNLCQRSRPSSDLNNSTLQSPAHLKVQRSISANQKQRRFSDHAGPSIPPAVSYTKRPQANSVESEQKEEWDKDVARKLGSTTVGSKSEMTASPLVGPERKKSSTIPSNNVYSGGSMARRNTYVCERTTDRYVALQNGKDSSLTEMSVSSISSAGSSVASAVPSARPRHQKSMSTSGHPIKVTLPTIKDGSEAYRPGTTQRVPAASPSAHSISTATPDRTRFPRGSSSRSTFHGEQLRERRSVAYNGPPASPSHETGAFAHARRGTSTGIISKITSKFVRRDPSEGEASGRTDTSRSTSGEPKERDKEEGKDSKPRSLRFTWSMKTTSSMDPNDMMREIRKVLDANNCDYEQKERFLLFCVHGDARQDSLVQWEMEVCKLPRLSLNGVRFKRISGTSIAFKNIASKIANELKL
With `O=C1NC(=O)C(c2cn(CCCn3ccnc3)c3ccccc23)=C1Nc1ccccc1`, the residual activity – broadly, the signal under treatment as a percentage of the control signal – was 93.6%.
On the same count and under the same terms, in the case of `CCCC(=O)Oc1ccc2[nH]c(C(=O)c3cc4ccccc4[nH]3)cc2c1` it was 96.4%; in that of `CCN(CC)CCNC(=O)c1c(C)[nH]c(/C=C2\C(=O)Nc3ccc(Cl)cc32)c1C`, 18.1%.

The target in the next test is AKT2 (human) (UniProt P31751). The test is described as above. The note with it: compound 0.5 µM; ATP 10 µM.
For the molecule `O=C1NC(=O)C(c2cn(CCCn3ccnc3)c3ccccc23)=C1Nc1ccccc1`, the residual activity came to 92.3%.
With `CCCC(=O)Oc1ccc2[nH]c(C(=O)c3cc4ccccc4[nH]3)cc2c1`, the residual activity is 105%.
Same read-out and setting: in the case of `CCN(CC)CCNC(=O)c1c(C)[nH]c(/C=C2\C(=O)Nc3ccc(Cl)cc32)c1C` it was 86.9%.

The target in the next test is SIK2 (human) (UniProt Q9H0K1). The description is as above. Particulars: compound 0.5 µM; ATP 10 µM.
Turning to `O=C1NC(=O)C(c2cn(CCCn3ccnc3)c3ccccc23)=C1Nc1ccccc1`, the residual activity is 90.3%.
The same measure, in the same setting: the value for `CCCC(=O)Oc1ccc2[nH]c(C(=O)c3cc4ccccc4[nH]3)cc2c1` was 97.6%.
The same measure, in the same setting: in the case of `CCN(CC)CCNC(=O)c1c(C)[nH]c(/C=C2\C(=O)Nc3ccc(Cl)cc32)c1C` it was 42.7%.

For another test, the target named is EPHA3 (human) (UniProt P29320). Described as above. The note with it: compound 0.5 µM; ATP 10 µM.
Consider `O=C1NC(=O)C(c2cn(CCCn3ccnc3)c3ccccc23)=C1Nc1ccccc1`, for which the residual activity amounted to 102%.
As for `CCCC(=O)Oc1ccc2[nH]c(C(=O)c3cc4ccccc4[nH]3)cc2c1`, the residual activity stood at 96.8%.
On the same count and under the same terms, the value for `CCN(CC)CCNC(=O)c1c(C)[nH]c(/C=C2\C(=O)Nc3ccc(Cl)cc32)c1C` was 92.5%.

The target in the next test is STK4 (human) (UniProt Q13043). The test is described as above. The note with it: compound 0.5 µM; ATP 10 µM.
As for `O=C1NC(=O)C(c2cn(CCCn3ccnc3)c3ccccc23)=C1Nc1ccccc1`, the residual activity came to 40.9%.
Take `CCCC(=O)Oc1ccc2[nH]c(C(=O)c3cc4ccccc4[nH]3)cc2c1`: the residual activity was found to be 96.8%.
Same read-out and setting: the value for `CCN(CC)CCNC(=O)c1c(C)[nH]c(/C=C2\C(=O)Nc3ccc(Cl)cc32)c1C` was 2.98%.

The next test concerns the target RPS6KA4 KD2 (human) (UniProt O75676). The description is as above. Particulars: compound 0.5 µM; ATP 10 µM.
In the case of `O=C1NC(=O)C(c2cn(CCCn3ccnc3)c3ccccc23)=C1Nc1ccccc1`, the residual activity was determined as 44.4%.
Still for that read-out and setting: the value for `CCCC(=O)Oc1ccc2[nH]c(C(=O)c3cc4ccccc4[nH]3)cc2c1` was 99.1%.
For `CCN(CC)CCNC(=O)c1c(C)[nH]c(/C=C2\C(=O)Nc3ccc(Cl)cc32)c1C`, the residual activity is 59%.

In another test the target is STK39 (human) (UniProt Q9UEW8). The test is described as above. Particulars: compound 0.5 µM; ATP 10 µM.
In the case of `O=C1NC(=O)C(c2cn(CCCn3ccnc3)c3ccccc23)=C1Nc1ccccc1`, the residual activity was 99.2%.
With `CCCC(=O)Oc1ccc2[nH]c(C(=O)c3cc4ccccc4[nH]3)cc2c1`, the residual activity is 117%.
Same read-out and setting: the value for `CCN(CC)CCNC(=O)c1c(C)[nH]c(/C=C2\C(=O)Nc3ccc(Cl)cc32)c1C` was 81.9%.

For another test, the target named is ADRBK1 (human) (UniProt P25098). Described as above. The note with it: compound 0.5 µM; ATP 10 µM.
Regarding `O=C1NC(=O)C(c2cn(CCCn3ccnc3)c3ccccc23)=C1Nc1ccccc1`, the residual activity is 97.1%.
As for `CCCC(=O)Oc1ccc2[nH]c(C(=O)c3cc4ccccc4[nH]3)cc2c1`, the residual activity came to 101%.
Still for that read-out and setting: the value for `CCN(CC)CCNC(=O)c1c(C)[nH]c(/C=C2\C(=O)Nc3ccc(Cl)cc32)c1C` was 104%.

Another test has as its target STK3 (human) (UniProt Q13188). The test is described as above. The note with it: compound 0.5 µM; ATP 10 µM.
With `O=C1NC(=O)C(c2cn(CCCn3ccnc3)c3ccccc23)=C1Nc1ccccc1`, the residual activity came to 52%.
Same read-out and setting: the value for `CCCC(=O)Oc1ccc2[nH]c(C(=O)c3cc4ccccc4[nH]3)cc2c1` was 87%.
For `CCN(CC)CCNC(=O)c1c(C)[nH]c(/C=C2\C(=O)Nc3ccc(Cl)cc32)c1C`, the residual activity stood at 16.9%.

The target in the next test is AURKA (human) (UniProt O14965). Described as above. The note with it: compound 0.5 µM; ATP 10 µM.
As for `O=C1NC(=O)C(c2cn(CCCn3ccnc3)c3ccccc23)=C1Nc1ccccc1`, the residual activity is 78.8%.
The same measure, in the same setting: in the case of `CCCC(=O)Oc1ccc2[nH]c(C(=O)c3cc4ccccc4[nH]3)cc2c1` it was 94.6%; in that of `CCN(CC)CCNC(=O)c1c(C)[nH]c(/C=C2\C(=O)Nc3ccc(Cl)cc32)c1C`, 80.3%.

A further test concerns the target PDGFRA (human) (UniProt P16234). Described as above. The note with it: compound 0.5 µM; ATP 10 µM.
Regarding `O=C1NC(=O)C(c2cn(CCCn3ccnc3)c3ccccc23)=C1Nc1ccccc1`, the residual activity was 94.1%.
On the same count and under the same terms, in the case of `CCCC(=O)Oc1ccc2[nH]c(C(=O)c3cc4ccccc4[nH]3)cc2c1` it was 96.6%; in that of `CCN(CC)CCNC(=O)c1c(C)[nH]c(/C=C2\C(=O)Nc3ccc(Cl)cc32)c1C`, 25.9%.

The next test concerns the target PDPK1 (human) (UniProt O15530). Described as above. The note with it: compound 0.5 µM; ATP 10 µM.
For `O=C1NC(=O)C(c2cn(CCCn3ccnc3)c3ccccc23)=C1Nc1ccccc1`, the residual activity is 80.3%.
For the molecule `CCCC(=O)Oc1ccc2[nH]c(C(=O)c3cc4ccccc4[nH]3)cc2c1`, the residual activity was 101%.
The same measure, in the same setting: in the case of `CCN(CC)CCNC(=O)c1c(C)[nH]c(/C=C2\C(=O)Nc3ccc(Cl)cc32)c1C` it was 101%.

The target in a further test is EGFR (human) (UniProt P00533). The description is as above. Particulars: compound 0.5 µM; ATP 10 µM.
In the case of `O=C1NC(=O)C(c2cn(CCCn3ccnc3)c3ccccc23)=C1Nc1ccccc1`, the residual activity was found to be 95.1%.
Same read-out and setting: the value for `CCCC(=O)Oc1ccc2[nH]c(C(=O)c3cc4ccccc4[nH]3)cc2c1` was 95.2%.
On to `CCN(CC)CCNC(=O)c1c(C)[nH]c(/C=C2\C(=O)Nc3ccc(Cl)cc32)c1C`, for which the residual activity came to 97%.

In the next test the target is MUSK (human) (UniProt O15146). The description is as above. Particulars: compound 0.5 µM; ATP 10 µM.
Regarding `O=C1NC(=O)C(c2cn(CCCn3ccnc3)c3ccccc23)=C1Nc1ccccc1`, the residual activity came out at 51.6%.
For `CCCC(=O)Oc1ccc2[nH]c(C(=O)c3cc4ccccc4[nH]3)cc2c1`, the residual activity came to 79.8%.
Consider `CCN(CC)CCNC(=O)c1c(C)[nH]c(/C=C2\C(=O)Nc3ccc(Cl)cc32)c1C`, for which the residual activity was found to be 63.5%.

The target in a further test is PKN1 (human) (UniProt Q16512). The test is described as above. Particulars: compound 0.5 µM; ATP 10 µM.
Consider `O=C1NC(=O)C(c2cn(CCCn3ccnc3)c3ccccc23)=C1Nc1ccccc1`, for which the residual activity was 22.7%.
The same measure, in the same setting: in the case of `CCCC(=O)Oc1ccc2[nH]c(C(=O)c3cc4ccccc4[nH]3)cc2c1` it was 94.6%; in that of `CCN(CC)CCNC(=O)c1c(C)[nH]c(/C=C2\C(=O)Nc3ccc(Cl)cc32)c1C`, 36.5%.

The next test deals with YES1 (human) (UniProt P07947). Described as above. The note with it: compound 0.5 µM; ATP 10 µM.
With `O=C1NC(=O)C(c2cn(CCCn3ccnc3)c3ccccc23)=C1Nc1ccccc1`, the residual activity is 89.3%.
On the same count and under the same terms, in the case of `CCCC(=O)Oc1ccc2[nH]c(C(=O)c3cc4ccccc4[nH]3)cc2c1` it was 84.4%; in that of `CCN(CC)CCNC(=O)c1c(C)[nH]c(/C=C2\C(=O)Nc3ccc(Cl)cc32)c1C`, 5.29%.

The target in another test is EPHA7 (human) (UniProt Q15375). The test is described as above. Particulars: compound 0.5 µM; ATP 10 µM.
EPHA7 (human), sequence (Q15375 whole entry, looked up): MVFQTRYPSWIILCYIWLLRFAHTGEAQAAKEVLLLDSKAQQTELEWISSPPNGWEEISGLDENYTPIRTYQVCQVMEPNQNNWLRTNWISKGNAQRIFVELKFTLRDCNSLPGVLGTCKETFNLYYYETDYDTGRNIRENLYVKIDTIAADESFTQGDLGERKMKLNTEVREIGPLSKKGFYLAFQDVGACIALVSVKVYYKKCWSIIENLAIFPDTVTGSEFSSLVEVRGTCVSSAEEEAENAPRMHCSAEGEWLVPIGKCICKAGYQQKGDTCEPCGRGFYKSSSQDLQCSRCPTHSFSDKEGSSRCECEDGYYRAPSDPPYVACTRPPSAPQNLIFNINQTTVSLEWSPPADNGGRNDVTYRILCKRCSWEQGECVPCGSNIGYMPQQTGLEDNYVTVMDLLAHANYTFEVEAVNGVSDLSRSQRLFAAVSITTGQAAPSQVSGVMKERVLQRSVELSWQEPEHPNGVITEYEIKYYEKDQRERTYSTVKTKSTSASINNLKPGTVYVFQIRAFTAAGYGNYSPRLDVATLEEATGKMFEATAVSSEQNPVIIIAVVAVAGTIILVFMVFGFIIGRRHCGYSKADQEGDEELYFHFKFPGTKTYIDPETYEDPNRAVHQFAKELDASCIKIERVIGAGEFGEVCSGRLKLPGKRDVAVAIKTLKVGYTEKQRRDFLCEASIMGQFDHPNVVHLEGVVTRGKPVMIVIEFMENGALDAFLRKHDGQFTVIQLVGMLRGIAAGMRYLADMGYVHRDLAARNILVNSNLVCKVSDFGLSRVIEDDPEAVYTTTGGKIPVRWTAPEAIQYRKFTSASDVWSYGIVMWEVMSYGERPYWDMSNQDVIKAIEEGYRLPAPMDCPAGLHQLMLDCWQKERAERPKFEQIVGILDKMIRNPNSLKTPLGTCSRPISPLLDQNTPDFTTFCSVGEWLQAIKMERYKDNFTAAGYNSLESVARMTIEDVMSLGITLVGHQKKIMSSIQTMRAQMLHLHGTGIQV
Turning to `O=C1NC(=O)C(c2cn(CCCn3ccnc3)c3ccccc23)=C1Nc1ccccc1`, the residual activity is 89.5%.
Still for that read-out and setting: the value for `CCCC(=O)Oc1ccc2[nH]c(C(=O)c3cc4ccccc4[nH]3)cc2c1` was 97.2%.
Same read-out and setting: in the case of `CCN(CC)CCNC(=O)c1c(C)[nH]c(/C=C2\C(=O)Nc3ccc(Cl)cc32)c1C` it was 67.1%.

In a further test the target is MAP3K7 TAB1 (human) (UniProt O43318+Q15750). The description is as above. Particulars: compound 0.5 µM; ATP 10 µM.
For the molecule `O=C1NC(=O)C(c2cn(CCCn3ccnc3)c3ccccc23)=C1Nc1ccccc1`, the residual activity is 93.8%.
On the same count and under the same terms, the value for `CCCC(=O)Oc1ccc2[nH]c(C(=O)c3cc4ccccc4[nH]3)cc2c1` was 92.1%; that for `CCN(CC)CCNC(=O)c1c(C)[nH]c(/C=C2\C(=O)Nc3ccc(Cl)cc32)c1C` was 3.51%.

The next test has as its target GSK3B (human) (UniProt P49841). Described as above. Particulars: compound 0.5 µM; ATP 10 µM.
For the molecule `O=C1NC(=O)C(c2cn(CCCn3ccnc3)c3ccccc23)=C1Nc1ccccc1`, the residual activity worked out at 14.2%.
Same read-out and setting: the value for `CCCC(=O)Oc1ccc2[nH]c(C(=O)c3cc4ccccc4[nH]3)cc2c1` was 94%; that for `CCN(CC)CCNC(=O)c1c(C)[nH]c(/C=C2\C(=O)Nc3ccc(Cl)cc32)c1C` was 93.1%.

A further test addresses CDK5 CDK5R1 p25 (human) (UniProt Q00535+Q15078). Described as above. The note with it: compound 0.5 µM; ATP 10 µM.
Take `O=C1NC(=O)C(c2cn(CCCn3ccnc3)c3ccccc23)=C1Nc1ccccc1`: the residual activity was 86%.
Still for that read-out and setting: the value for `CCCC(=O)Oc1ccc2[nH]c(C(=O)c3cc4ccccc4[nH]3)cc2c1` was 90.1%; that for `CCN(CC)CCNC(=O)c1c(C)[nH]c(/C=C2\C(=O)Nc3ccc(Cl)cc32)c1C` was 95.1%.

Another test addresses STK25 (human) (UniProt O00506). The description is as above. Particulars: compound 0.5 µM; ATP 10 µM.
For `O=C1NC(=O)C(c2cn(CCCn3ccnc3)c3ccccc23)=C1Nc1ccccc1`, the residual activity was determined as 63.1%.
Still for that read-out and setting: in the case of `CCCC(=O)Oc1ccc2[nH]c(C(=O)c3cc4ccccc4[nH]3)cc2c1` it was 94.5%; in that of `CCN(CC)CCNC(=O)c1c(C)[nH]c(/C=C2\C(=O)Nc3ccc(Cl)cc32)c1C`, 56.1%.
